Laboratory results from ChEMBL document CHEMBL1152816 (J Med Chem, 2009).

Tests used:
Rattus norvegicus [1] = experiment: Antiinflammatory activity against carrageenan-induced foot paw edema in rat at 150 mg/kg, po after 3 hrs; assay type: functional
Rattus norvegicus [2] = experiment: Antiinflammatory activity against carrageenan-induced foot paw edema in po dosed rat after 3 hrs; assay type: functional
[3] = Inhibition of potato 5LOX by enzyme immunoassay; design: species or system Solanum tuberosum
[4] = molecular target: T1, Prostaglandin G/H synthase 1 (Bos taurus, UniProt O62664)
T1 sequence (O62664 whole entry): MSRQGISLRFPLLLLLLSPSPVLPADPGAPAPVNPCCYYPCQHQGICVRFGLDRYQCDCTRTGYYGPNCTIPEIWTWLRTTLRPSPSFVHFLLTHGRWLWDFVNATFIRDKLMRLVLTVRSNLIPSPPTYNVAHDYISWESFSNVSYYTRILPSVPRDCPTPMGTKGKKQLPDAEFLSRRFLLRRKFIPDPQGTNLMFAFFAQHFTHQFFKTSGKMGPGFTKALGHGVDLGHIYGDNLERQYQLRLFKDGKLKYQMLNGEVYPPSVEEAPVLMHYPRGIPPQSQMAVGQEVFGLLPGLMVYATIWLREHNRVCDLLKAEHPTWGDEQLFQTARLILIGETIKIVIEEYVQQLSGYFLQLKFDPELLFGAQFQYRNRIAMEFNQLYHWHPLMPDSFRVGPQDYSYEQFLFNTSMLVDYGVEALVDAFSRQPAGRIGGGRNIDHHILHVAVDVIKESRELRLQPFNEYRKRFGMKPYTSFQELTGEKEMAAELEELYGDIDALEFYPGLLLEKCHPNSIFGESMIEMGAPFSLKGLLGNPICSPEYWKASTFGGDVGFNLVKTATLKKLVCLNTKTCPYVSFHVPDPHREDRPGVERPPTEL
Description: Inhibition of bovine COX1 by enzyme immunoassay

[5] = molecular target: T2, Prostaglandin G/H synthase 2 (Homo sapiens, UniProt P35354); experiment: Inhibition of human recombinant COX2 by enzyme immunoassay
T2 sequence (P35354 whole entry): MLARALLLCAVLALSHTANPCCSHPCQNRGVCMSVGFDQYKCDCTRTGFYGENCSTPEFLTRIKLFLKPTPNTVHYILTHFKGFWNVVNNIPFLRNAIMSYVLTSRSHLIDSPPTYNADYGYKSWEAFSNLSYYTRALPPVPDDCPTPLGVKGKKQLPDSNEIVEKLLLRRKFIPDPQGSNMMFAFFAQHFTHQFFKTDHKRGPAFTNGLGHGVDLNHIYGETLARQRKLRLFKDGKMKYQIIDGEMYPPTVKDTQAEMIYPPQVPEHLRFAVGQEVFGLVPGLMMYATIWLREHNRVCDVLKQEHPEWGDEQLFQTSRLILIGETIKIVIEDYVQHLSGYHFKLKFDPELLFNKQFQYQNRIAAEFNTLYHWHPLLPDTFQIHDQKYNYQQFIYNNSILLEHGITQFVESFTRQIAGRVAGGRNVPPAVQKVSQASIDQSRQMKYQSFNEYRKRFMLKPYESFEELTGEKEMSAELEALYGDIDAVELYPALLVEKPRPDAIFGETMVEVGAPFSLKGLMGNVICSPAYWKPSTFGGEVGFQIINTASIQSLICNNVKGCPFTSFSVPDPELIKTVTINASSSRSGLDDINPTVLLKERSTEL

Structure (SMILES) | IC50 [3] [µM] | IC50 [4] [µM] | IC50 [5] [µM] | Activity (Rattus norvegicus [1]) [%] | ED50 (Rattus norvegicus [2]) [mg/kg]
NS(=O)(=O)c1ccc(-n2nc(C(F)(F)F)cc2-c2ccnc(Cl)c2)cc1 | 0.39 | 8.3 | 0.73 | 33.3 | > 150
NS(=O)(=O)c1ccc(-n2nc(C(F)(F)F)cc2-c2ccn(C(F)F)c(=O)c2)cc1 | 5 | 13.1 | 0.69 | – | 27.7
CC(C)Cc1ccc(C(C)C(=O)O)cc1 (centres undefined) [IBUPROFEN] | – | – | – | – | 67.4

The remaining compounds from weak to strong by IC50 [3], led by results:

IC50 [3] [µM] | IC50 [4] [µM] | IC50 [5] [µM] | Structure (SMILES) | Activity (Rattus norvegicus [1]) [%] | ED50 (Rattus norvegicus [2]) [mg/kg]
4.4 | 7.8 | 1.82 | CS(=O)(=O)c1ccc(-n2nc(C(F)(F)F)cc2-c2ccn(C(F)F)c(=O)c2)cc1 | – | 42.9
4 | – | – | O=C(O)/C=C/c1ccc(O)c(O)c1 [CAFFEIC ACID] | – | –
0.47 | 258 | – | CS(=O)(=O)c1ccc(-n2nc(C(F)(F)F)cc2-c2ccnc(Cl)c2)cc1 | 43.1 | > 150
